Patent publication US8124627B2, “Biphenyl compounds useful as muscarinic receptor antagonists” (Theravance, Inc., priority 2005, dated 2012)
Structures can show the parent of a compound that is named as a salt.

Legend:
[1] = molecular target: T1, M3 muscarinic receptor subtype (Homo sapiens, UniProt P20309); assay: Radioligand binding assay ([3H]-NMS displacement, CHO cell membranes); settings: tested in this or a similar assay
T1 construct: expressed in transfected cells; crude membranes prepared in house
T1 sequence (P20309 whole entry): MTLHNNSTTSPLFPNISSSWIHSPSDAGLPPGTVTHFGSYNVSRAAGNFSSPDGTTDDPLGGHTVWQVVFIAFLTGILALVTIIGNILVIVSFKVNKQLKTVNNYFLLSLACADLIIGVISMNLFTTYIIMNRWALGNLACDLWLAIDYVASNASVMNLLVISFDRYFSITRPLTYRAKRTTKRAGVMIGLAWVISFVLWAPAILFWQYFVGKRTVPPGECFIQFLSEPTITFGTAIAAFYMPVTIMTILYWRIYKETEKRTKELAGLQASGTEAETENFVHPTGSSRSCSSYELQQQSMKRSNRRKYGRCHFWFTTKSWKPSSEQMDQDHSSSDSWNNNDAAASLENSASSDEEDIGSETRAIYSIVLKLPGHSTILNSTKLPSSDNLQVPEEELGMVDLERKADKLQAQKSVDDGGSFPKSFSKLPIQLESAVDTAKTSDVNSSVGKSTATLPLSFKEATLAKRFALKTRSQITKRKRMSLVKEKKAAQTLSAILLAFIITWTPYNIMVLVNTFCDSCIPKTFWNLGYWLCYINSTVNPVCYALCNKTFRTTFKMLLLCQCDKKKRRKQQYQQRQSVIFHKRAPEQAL
Method: CHO cell lines stably expressing cloned human hM1, hM2, hM3 and hM4 muscarinic receptor subtypes, respectively, were grown to near confluency in medium consisting of HAM's F-12 supplemented with 10% FBS and […]. The cells were grown in a 5% CO2, 37° C. incubator and lifted with 2 mM EDTA in dPBS. Cells were collected by 5 minute centrifugation at 650×g, and cell pellets were either stored frozen at −80° C. or membranes were prepared immediately. For membrane preparation, cell pellets were resuspended in lysis buffer and homogenized with a Polytron PT-2100 tissue disrupter (Kinematica AG; 20 seconds×2 bursts). Crude membranes were centrifuged at 40,000×g for 15 minutes at 4° C. […] The protein concentration of the membrane suspension was determined by the method described in Lowry, O. et al., […] 193:265 (1951). […]
Radioligand binding assays were performed in 96-well microtiter plates in a total assay volume of 100 μL. […] Filter plates were rinsed three times with wash buffer (10 mM HEPES) to remove unbound radioactivity. […] The plates were then counted in a PerkinElmer Topcount liquid scintillation counter (PerkinElmer Inc., Wellesley, Mass.). Binding data were analyzed by nonlinear regression analysis with the GraphPad Prism Software package (GraphPad Software, Inc., San Diego, Calif.) using the one-site competition model. […]

[2] = Dynamic moisture sorption (DMS) assessment; assay type: physicochemical; settings: exposed to up to 90% RH
Method: A dynamic moisture sorption (DMS) assessment (also known as a moisture sorption-desorption profile) was performed for samples of the crystalline diacetate salt using a VTI atmospheric microbalance, SGA-100 system (VTI Corp., Hialeah, Fla. 33016). A sample size of approximately 10 mg was used and the humidity was set at the ambient value at the start of the analysis. A typical DMS analysis consisted of three scans: ambient to 2% relative humidity (RH), 2% RH to 90% RH, 90% RH to 5% RH at a scan rate of 5% RH/step. The mass was measured every two minutes and the RH was changed to the next value (+/−5% RH) when the mass of the sample was stable to within 0.01% for 5 consecutive points.

[3] = Differential scanning calorimetry (DSC), thermal decomposition; assay type: physicochemical; settings: heating ramp 10° C./min
Method: DSC was performed using a TA Instruments Model Q-10 module with a Thermal Analyst controller, and data were collected and analyzed using TA Instruments Thermal Solutions software. A sample of about 1 mg of the crystalline diacetate salt was accurately weighed into an aluminum pan with lid, and evaluated using a linear heating ramp of 10° C./min from ambient temperature to approximately 300° C. The DSC cell was purged with dry nitrogen during use. A representative DSC trace for this salt is shown in FIG. 2 and depicts one transition at about 114° C., no thermal decomposition below about 160° C., and maximum endothermic heat flow at about 112° C.

Structure (SMILES) | Ki [1] | weight gain in DMS (reversible sorption/desorption profile) [2] | no thermal decomposition below (DSC trace) [3]
CN(CCN1CCC(OC(=O)Nc2ccccc2-c2ccccc2)CC1)C(=O)c1cccc(C(=O)NCCNCc2ccc(O)cc2)c1 [Example 1, Biphenyl-2-ylcarbamic Acid 1-[2-({3-[2-(4-Hydroxybenzylamino)ethylcarbamoyl]benzoyl}methylamino)ethyl]piperidin-4-yl Ester] | < 5 nM | – | –
CN(CCN1CCC(OC(=O)Nc2ccccc2-c2ccccc2)CC1)C(=O)c1cccc(C(=O)NCCNCc2ccc(O)cc2)c1 [crystalline diacetate salt, biphenyl-2-ylcarbamic acid 1-[2-({3-[2-(4-hydroxybenzylamino)ethylcarbamoyl]benzoyl}methylamino)ethyl]piperidin-4-yl ester] | – | less than 18% | ≥ 160 °C
CN(CCN1CCC(OC(=O)Nc2ccccc2-c2ccccc2)CC1)C(=O)c1cccc(C(=O)NCCNCc2ccc(O)cc2)c1 [crystalline monooxalate salt, Biphenyl-2-ylcarbamic Acid 1-[2-({3-[2-(4-Hydroxybenzylamino)ethylcarbamoyl]benzoyl}methylamino)ethyl]piperidin-4-yl Ester] | – | less than 14% | ≥ 150 °C
CN(CCN1CCC(OC(=O)Nc2ccccc2-c2ccccc2)CC1)C(=O)c1cccc(C(=O)NCCNCc2ccc(O)cc2)c1 [crystalline dipropionate salt, Biphenyl-2-ylcarbamic Acid 1-[2-({3-[2-(4-Hydroxybenzylamino)ethylcarbamoyl]benzoyl}methylamino)ethyl]piperidin-4-yl Ester] | – | less than 11% | ≥ 150 °C
